Laboratory results taken from PMC6556873, “Rapid Covalent-Probe Discovery by Electrophile-Fragment Screening” (Journal of the American Chemical Society, 2019).
Where two headings read alike, the source gives them in different places.

Legend:
BSA = molecular target: T1, BSA (Bos taurus, UniProt P02769); set-up: Intact protein LC/MS covalent labelling, fragments in pools of five, 200 uM each, 4 °C; details: 24 h, 4 °C, pool of five; 200 µM; covalent
T1 construct: gene ALB

PCAF = molecular target: T2, PCAF (Homo sapiens, UniProt Q92831); set-up: Intact protein LC/MS covalent labelling, fragments in pools of five, 200 uM each, 4 °C; details: 24 h, 4 °C, pool of five; 200 µM; covalent
T2 construct: gene KAT2B

NUDT7 = molecular target: T3, NUDT7 (Homo sapiens, UniProt P0C024); set-up: Intact protein LC/MS covalent labelling, fragments in pools of five, 200 uM each, 4 °C; details: 24 h, 4 °C, pool of five; 200 µM; covalent
T3 construct: residues 14-235, E. coli, pNIC28-Bsa4, N-terminal His6 tag removed by TEV, construct 26672 Da

NNMT (hNNMT) = molecular target: T4, NNMT (hNNMT) (Homo sapiens, UniProt P40261); set-up: Intact protein LC/MS covalent labelling, fragments in pools of five, 200 uM each, 4 °C; details: 24 h, 4 °C, pool of five; 200 µM; covalent
T4 construct: wild type, N-terminal His6 tag kept (no cleavage described), E. coli, construct 31248 Da
T4 sequence (P40261 1-264): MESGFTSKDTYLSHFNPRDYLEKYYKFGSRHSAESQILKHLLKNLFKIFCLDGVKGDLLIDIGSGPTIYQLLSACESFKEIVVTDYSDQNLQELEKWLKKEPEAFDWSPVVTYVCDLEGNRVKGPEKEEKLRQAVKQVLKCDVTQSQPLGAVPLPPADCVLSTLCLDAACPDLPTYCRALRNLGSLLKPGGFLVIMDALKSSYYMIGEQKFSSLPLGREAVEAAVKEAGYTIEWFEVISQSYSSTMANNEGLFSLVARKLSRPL

OTUB2 (OTUB2A) = molecular target: T5, OTUB2 (OTUB2A) (Homo sapiens, UniProt Q96DC9); set-up: Intact protein LC/MS covalent labelling, fragments in pools of five, 200 uM each, 4 °C; details: 24 h, 4 °C, pool of five; 200 µM; covalent
T5 construct: full length residues 1-234, E. coli BL21(DE3)-R3, His tag removed by TEV, construct 27312 Da
T5 sequence (Q96DC9 1-234): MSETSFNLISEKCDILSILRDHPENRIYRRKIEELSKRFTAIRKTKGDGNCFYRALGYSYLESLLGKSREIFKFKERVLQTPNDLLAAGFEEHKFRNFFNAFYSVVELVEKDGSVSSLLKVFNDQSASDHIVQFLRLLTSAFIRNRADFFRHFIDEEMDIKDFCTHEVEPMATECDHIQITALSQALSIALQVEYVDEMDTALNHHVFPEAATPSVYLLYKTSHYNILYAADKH

in vitro [1] = assay: in vitro; set-up: species or system CCD841, HEK293; details: human, hb2 cells, read-out: HB-2 Cells Viability (%)
in vitro [2] = assay: in vitro; set-up: species or system HB2, CCD841; details: human, hek293 cells
in vitro [3] = assay: in vitro; set-up: species or system HB2, HEK293; details: human, ccd841 cells

T2 sequence (Q92831 whole entry, the tested form may be a part): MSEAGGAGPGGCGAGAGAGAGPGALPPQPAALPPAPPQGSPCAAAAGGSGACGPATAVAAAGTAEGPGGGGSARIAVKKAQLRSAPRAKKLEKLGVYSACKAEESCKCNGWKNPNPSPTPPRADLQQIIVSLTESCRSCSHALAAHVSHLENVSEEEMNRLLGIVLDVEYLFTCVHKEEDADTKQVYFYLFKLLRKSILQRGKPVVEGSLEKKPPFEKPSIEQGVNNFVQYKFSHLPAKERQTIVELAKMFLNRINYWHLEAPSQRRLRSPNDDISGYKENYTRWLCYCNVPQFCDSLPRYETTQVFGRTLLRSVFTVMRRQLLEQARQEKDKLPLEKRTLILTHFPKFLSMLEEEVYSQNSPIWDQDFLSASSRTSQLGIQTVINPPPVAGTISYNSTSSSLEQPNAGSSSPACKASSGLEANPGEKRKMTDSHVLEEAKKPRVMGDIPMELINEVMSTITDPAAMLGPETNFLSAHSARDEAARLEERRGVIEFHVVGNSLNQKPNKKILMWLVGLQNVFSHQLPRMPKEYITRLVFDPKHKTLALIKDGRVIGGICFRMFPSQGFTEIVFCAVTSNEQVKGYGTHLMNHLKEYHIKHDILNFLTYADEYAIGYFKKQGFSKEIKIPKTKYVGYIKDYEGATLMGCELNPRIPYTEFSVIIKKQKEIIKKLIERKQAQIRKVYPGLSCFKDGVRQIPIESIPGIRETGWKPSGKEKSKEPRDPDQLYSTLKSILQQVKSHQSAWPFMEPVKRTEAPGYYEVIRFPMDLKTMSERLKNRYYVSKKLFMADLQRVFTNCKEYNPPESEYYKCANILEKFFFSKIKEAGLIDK
T1 sequence (P02769 whole entry, the tested form may be a part): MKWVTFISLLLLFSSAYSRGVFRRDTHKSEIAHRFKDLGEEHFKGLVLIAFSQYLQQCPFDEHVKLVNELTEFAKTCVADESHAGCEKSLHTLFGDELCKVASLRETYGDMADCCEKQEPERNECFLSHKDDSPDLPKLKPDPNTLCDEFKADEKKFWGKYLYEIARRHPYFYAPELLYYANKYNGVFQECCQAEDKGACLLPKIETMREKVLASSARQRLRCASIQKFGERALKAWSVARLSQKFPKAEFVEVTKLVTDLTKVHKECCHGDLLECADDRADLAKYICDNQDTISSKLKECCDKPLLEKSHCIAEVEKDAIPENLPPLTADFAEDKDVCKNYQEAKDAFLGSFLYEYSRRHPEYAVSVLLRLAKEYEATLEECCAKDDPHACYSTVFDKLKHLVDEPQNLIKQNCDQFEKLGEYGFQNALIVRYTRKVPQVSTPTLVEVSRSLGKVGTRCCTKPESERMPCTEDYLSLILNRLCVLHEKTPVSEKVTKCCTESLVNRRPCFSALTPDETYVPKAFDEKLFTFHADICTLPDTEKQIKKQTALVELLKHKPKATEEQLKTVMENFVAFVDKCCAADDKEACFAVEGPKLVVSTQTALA
T3 sequence (P0C024 14-235): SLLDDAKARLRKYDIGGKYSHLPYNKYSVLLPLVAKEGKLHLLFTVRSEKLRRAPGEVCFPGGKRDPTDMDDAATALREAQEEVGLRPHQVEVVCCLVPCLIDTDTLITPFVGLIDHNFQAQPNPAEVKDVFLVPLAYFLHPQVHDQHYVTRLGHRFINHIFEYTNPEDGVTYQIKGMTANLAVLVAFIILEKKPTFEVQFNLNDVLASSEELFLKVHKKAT

Compound | BSA (BSA) | PCAF (PCAF) | NUDT7 (NUDT7) | NNMT (NNMT (hNNMT)) | OTUB2 (OTUB2 (OTUB2A)) | viability at 48 h, 10 µM (in vitro [1]) | viability at 48 h, 10 µM (in vitro [2]) | viability at 48 h, 10 µM (in vitro [3])
C=CC(=O)N1CCCC1C(=O)Nc1nc2ccccc2s1 (stereo not shown) [PCM-0102681] | 0 | 0 | 0 | 0 | 0 | 95.7% | 79.7% | 115%
Cc1ccc([N+](=O)[O-])c(NC(=O)CCl)c1C [PCM-0102511] | 0 | 0 | 0.15 | 0 | 0.07 | 91.5% | 56.3% | 75.4%
CC(NC(=O)CCl)C(=O)N(C)C (stereo not shown) [PCM-0102754] | 0 | 0 | 0 | 0 | 0 | 96% | 83.7% | 101%
O=C(CCl)NC(=O)c1ccccc1Br [PCM-0102464] | 0 | 0 | 0 | 0 | 0 | 104% | 107% | 113%
CNC(=O)c1cccc(NC(=O)CCl)c1 [PCM-0102113] | 0 | 0 | 0 | 0 | 0 | 25.2% | 1.7% | 55%
Cl.O=C(CCl)N1CCN(Cc2ccc(Cl)s2)CC1 [PCM-0102277] | 0.11 | 0 | 0 | 0.26 | 0.09 | 8.6% | 18.2% | 37.3%
COC(=O)c1c(NC(=O)CCl)sc2c1CCC(C)C2 (stereo not shown) [PCM-0102418] | 0 | 0 | 0.12 | 0.8 | 0 | 40.8% | 56.4% | 88.6%
CC(C)(C)n1ncc2c1CCCC2NC(=O)CCl.Cl (stereo not shown) [PCM-0103046] | 0 | 0 | 0 | 0 | 0.36 | 81.5% | 89.3% | 90.9%
C=CC(=O)N1CCC2(CCN(C)C2=O)CC1 [PCM-0102475] | 0 | 0 | 0 | 0 | 0 | 94.8% | 85.3% | 100%
CC(C)(C)C(NC(=O)CCl)c1cccs1 (stereo not shown) [PCM-0102773] | 0 | 0 | 0.09 | 0 | 0 | 86.9% | 63.6% | 72.8%
O=C(CCl)N(c1ccccc1)C1C=CS(=O)(=O)C1 (stereo not shown) [PCM-0102372] | 0 | 0 | 0.28 | 0.28 | 0 | 24.1% | 11.2% | 31%
Cc1cc(NC(=O)CCl)n(-c2ccccc2F)n1 [PCM-0103066] | 0 | 0 | 0 | 0 | 0.44 | 64% | 36% | 65.3%
CN1C(=O)c2ccc(NC(=O)CCl)cc2C1=O [PCM-0102309] | 0 | 0 | 0.12 | 0 | 0.19 | 52.5% | 67.2% | 61.2%
Cl.O=C(CCl)N1CCN(Cc2cccc(Cl)c2)CC1 [PCM-0102269] | 0 | 0 | 0 | 0 | 0.19 | 6.3% | 7.9% | 24.2%
O=C(CCl)NC(=O)NC1CCCCC1 [PCM-0102692] | 0 | 0 | 0 | 0.76 | 0 | 48.7% | 62.3% | 70.7%
C=CC(=O)N1CCC(CN2C(=O)CNC2=O)C1 (stereo not shown) [PCM-0102488] | 0 | 0 | 0 | 0 | 0 | 96.6% | 100% | 114%
CN(Cc1ccc(Br)cc1)C(=O)CCl [PCM-0102401] | 0 | 0 | 0.58 | 0.53 | 0 | 6.8% | 7.3% | 32.1%
COC(=O)c1cccc(NC(=O)CCl)c1 [PCM-0103048] | 0 | 0 | 0 | 0.2 | 0.87 | 17.7% | 5.1% | 34.7%
C=CC(=O)Nc1nc(C)cc(C)n1 [PCM-0102547] | 0 | 0 | 0.34 | 0 | 0 | 98.2% | 133% | 100%
C=CC(=O)NC1(C(N)=O)CCCOC1 (stereo not shown) [PCM-0102608] | 0 | 0 | 0 | 0 | 0 | 107% | 118% | 107%
